{"source": "patent US3970648A", "about": "“2-[2-(5-Nitro-2-furyl)vinyl]-4-(anilino)quinazolines” (Diamond Shamrock Corporation, priority 1974, dated 1976)", "assay": "Growth rate and feed efficiency in swine, Example XIII (Table VIII)", "assay_type": "in vivo, weanling pigs", "settings": "25 g/T", "excerpt": "Thirty-six weanling pigs weighing approximately 30 pounds each in good physical condition and originating from a common source were used in these tests. The pigs were allocated into sex and weight equalized pens of six pigs each. A 1 week period was allowed for acclimatization before testing. Three replicates of six pigs were fed the basal ration described below, and three replicates were fed the same basal ration supplemented with 25 g/T of the product of Example I.\nThe basal ration was a 17% commercial corn-soya pelletized formulation which was free of antibiotic and drug components. Composition of the basal ration formulation was: […]\nThe rations were offered ad libitum from six bushel self-feeders with a continuous supply of fresh water. The same ration formulations were used throughout the 6 week feeding period. Individual pig weighing were made after 0, 2, 4 and 6 (termination) week periods. Feed consumption records were kept on a pen basis, with feed efficiency conversion being compiled at the end of the second, fourth and sixth (termination) week of feeding. Complete morbidity and mortality records were kept.", "key": {"[1]": {"settings": "6 weeks, mean of three replicates"}}, "data": [{"compound": "O=[N+]([O-])c1ccc(C=Cc2nc(Nc3ccc(O)cc3)c3ccccc3n2)o1", "note": "[Example I, 2-[2-(5-nitro-2-furyl)vinyl]-4-(p-hydroxyanilino)quinazoline]", "values": [{"measurement": "Improved Response Over Basal Ration: Feed Efficiency", "setting": "6 weeks", "result": "+2.4%"}, {"measurement": "Improved Response Over Basal Ration: Gain", "setting": "6 weeks", "result": "+9.9%"}, {"measurement": "feed efficiency (in words)", "setting": "6 weeks", "result": "enhanced feed efficiency"}, {"measurement": "growth improvement (in words)", "setting": "6 weeks", "result": "very substantial growth improvement"}, {"measurement": "Avg. Daily Gain", "setting": "[1]", "result": 1.537}, {"measurement": "Feed/lb. Gain", "setting": "[1]", "result": 2.507}, {"measurement": "Avg. Daily Gain", "setting": "6 weeks, replicate a", "result": 1.567}, {"measurement": "Feed/lb. Gain", "setting": "6 weeks, replicate a", "result": 2.722}, {"measurement": "Avg. Daily Gain", "setting": "6 weeks, replicate b", "result": 1.567}, {"measurement": "Feed/lb. Gain", "setting": "6 weeks, replicate b", "result": 2.392}, {"measurement": "Avg. Daily Gain", "setting": "6 weeks, replicate c", "result": 1.476}, {"measurement": "Feed/lb. Gain", "setting": "6 weeks, replicate c", "result": 2.406}, {"measurement": "Avg. 6 Wk. Wt. Per Pig", "setting": "replicate a", "result": 97.8}, {"measurement": "Avg. 6 Wk. Wt. Per Pig", "setting": "replicate b", "result": 97.6}, {"measurement": "Avg. 6 Wk. Wt. Per Pig", "setting": "replicate c", "result": 93.7}]}]}
